Reference: patent publication US20220313651A1, “INHIBITORS OF ZIKA VIRUS INFECTION” (priority 2019, published 2022)

Key:
[1] = system: ZIKV human strain PAN2016; experiment: ZIKV PAN2016 infection of Ifnar1-/- mice: tissue viral titers, immunofluorescence; format: in vivo; conditions: 20 mg/kg i.p., 5 dpi
Excerpt: FIG. 8A is a schematic diagram of experimental procedures. […] The treated mice were infected with ZIKV human strain R103451 (200 plaque forming unit (PFU)/mouse), followed by evaluation of survival rate (FIG. 8B) or weight changes (FIG. 8C) for 21 days. The data are expressed as mean±s.e.m. of mice in each group (n=6). In a separate experiment, ST087010 or gossypol-treated mice were infected with ZIKV human strain PAN2016 (200, PFU/mouse). Five days post-infection (dpi), viral titers were detected in tissues by plaque assay (FIG. 8D), and ZIKV or caspase-3 signals were measured in eye (FIG. 8E) and testis ([…]) tissues by immunofluorescence staining. The data are expressed as mean±s.e.m. of mice in each group (n=5), and significant differences among different groups are shown as *, **, and ***. The detection limit is 25 PFU/g. ZIKV and caspase-3 (in FIG. 8E-F) were stained with anti-ZIKV and anti-active caspase-3 antibodies, respectively. Nuclei were stained with DAPI (40,6-diamidino-2-phenylindole). Representative images of immunofluorescence staining are shown. Magnification, 63×, and scale bar, 10 μm.
ST087010 was evaluated for protection against ZIKV infection in ZIKV-susceptible Ifnar1^−/− mice. Briefly, 7-8-week-old male mice were used, and two separate experiments were performed. […] These mice were infected by i.p. injection with ZIKV (human strain R103451, 200 PFU/mouse), and observed daily for weight changes and survival until 21 days post-infection (dpi). […]
Plaque assay was used to detect viral titers in ZIKV-infected tissues. […] ZIKV titers in tissues were measured from ˜40 mg of samples, and thus the detection limit is about 25 PFU/g of tissues.
Immunofluorescence staining was carried out to detect ZIKV and caspase-3 signals in ZIKV-infected mouse tissues. […] The slides were analyzed using a confocal microscope (Zeiss LSM 880) and ZEN software, and fluorescent signals were quantified by ImageJ software. […]

[2] = system: ZIKV human strain R116265 (2016/Mexico); experiment: Plaque reduction inhibition assay in Vero E6 cells, ZIKV R116265; format: cell-based, Zika virus (ZIKV); conditions: Table 7, gossypol derivatives, read-out: ZIKV strains IC50, R116265
Excerpt: Vero E6 and LLC-MK2 cells were maintained in Dulbecco's Modified Eagle Medium (DMEM) supplemented with 8% fetal bovine serum (FBS) and penicillin and streptomycin (P/S). C6/36 cells were maintained in Eagle's Minimal Essential Medium (EMEM) supplemented with 5% FBS and P/S. ZIKV strains, including human strains PAN2016 (2016/Panama), R116265 (2016/Mexico), PAN2015 (2015/Panama), FLR (2015/Colombia), R103451 (2015/Honduras), PRVABC59 (2015/Puerto Rico), PLCal_ZV (2013/Thailand), and IbH 30656 (1968/Nigeria), mosquito strain MEX 2-81 (2016/Mexico), and rhesus macaque strain MR 766 (1947/Uganda), were used in the studies. These ZIKV strains were cultured in Vero E6 cells, and viral titers were detected by a standard plaque-forming assay. DENV human strains, including type 1: DENV-1-V1792 (2007/Vietnam), type 2: DENV-2-V594 (2006/Puerto Rico), type 3: DENV-3-V1043 (2006/Puerto Rico), and type 4: DENV-4-PR 06-65-740 (2006/Puerto Rico), were cultured in C6/36 cells, and the viral titers were determined by plaque-forming assay as described above.
A plaque reduction inhibition assay was carried out to measure the inhibitory activity of Z-medicaments against infections of ZIKV and DENV. […] The compound-virus mixtures were then transferred to Vero E6 cells (10^5/well) and incubated at 37° C. for 1 h. […] The cells were washed thoroughly with PBS, and overlaid with DMEM containing 1% carboxymethyl cellulose and 2% FBS, followed by in vitro culture at 37° C. for 4-5 days and then staining with 0.5% crystal violet.
After removal of the unbound compounds by centrifugation after addition of 3% PEG-6000, ZIKV was incubated with Vero E6 cells at 37° C. for 1 h. The cells were then washed with PBS, overlaid with DMEM containing 1% carboxymethyl cellulose and 2% FBS, and cultured at 37° C. for 4-5 days, followed by staining with 0.5% crystal violet.

Cc1cc2c(C(C)C)c(O)c(O)c(/C=N/n3c(=O)[nH][nH]c3=O)c2c(O)c1-c1c(C)cc2c(C(C)C)c(O)c(O)c(/C=N/n3c(=O)[nH][nH]c3=O)c2c1O [ST087010]
Viral titers in tissues (plaque assay) ([1]; ZIKV PAN2016 200 PFU/mouse, heart, testis, eye, kidney, brain): significantly reduced viral titers | ZIKV+ signals in eye and testis tissues ([1]; ZIKV PAN2016, immunofluorescence): undetectable | Caspase-3 staining in eye and testis tissues ([1]; ZIKV PAN2016, immunofluorescence, vs DMSO): undetectable or diminished staining | IC50 [2]: 2910 ± 70 nM
